# Assay results reported in patent publication US9573899B2, “USP7 inhibitor compounds and methods of use” (Genentech, Inc., priority 2015, dated 2017).
# pEC50: −log10 of the molar value.
# How the values were obtained:
# [1] = test system: p21 in KMS-21BM and KMS-28PE multiple myeloma cells; experiment: Western blot in multiple myeloma cells (FIG. 13B); type: cell-based; conditions: compared to 89
# Method: (§1) In 24-well plates, 0.10-0.15×10^6 (adherent) or 0.5×10^6 (suspension) cells were treated with 15 μM or 2.5 μM compounds, respectively, for 24 h in low serum prior to lysis for Western Blot analysis.
# [2] = test system: MCF-7, U Os, normal osteoblast, MDA-MB157 and SaOs cell lines; experiment: CellTiter-Glo viability of tumor, matched normal and p53 null cell lines (FIG. 9); type: cell-based
# Method: 2,500-5,000 cells were seeded in 1-well of a 96-well plate (Corning; 3904). The following day, the media was changed from normal (10%) to low serum (0.5%) containing vehicle (DMSO) or compounds. 16-24 h later FBS was added to each well to bring serum levels back to normal (10%). Cells were then allowed to grow for 2 days. All treatments were done in triplicate.
# Seventy two hours after compounds were added, CellTitre Glo (CTG) reagent was added following the protocol provided by the manufacturer (Promega). In the experiment to test compound dependency on USP7, 3× more USP7 null cells were plated per well (7,500 vs. 2,500 for wild-type (WT) cells), given the slower proliferation of USP7 null cells. For the multiple myeloma experiment, cells seeded in low serum and treated with compounds immediately. Twenty four hours later, serum was added back to normal levels. CTG assay was done 24 h later i.e. 48 h after compounds were added instead of 72 hrs later for the adherent cells.
# [3] = test system: p53, p21, MDM2 and E6AP in RKO, RKO-E6, Vibo and SiHA cell lines; experiment: Western blot in RKO, RKO-E6, Vibo and SiHA cells (FIG. 14A); type: cell-based
# Method: as §1
# [4] = test system: colon cancer cell lines RKO and RKO-E6, and cervical cancer cell lines Vibo and SiHA; experiment: Incucyte cell proliferation in RKO, RKO-E6, Vibo and SiHA cells (FIG. 15); type: cell-based
# Method: 2,500-5,000 cells were seeded in 1-well of a 96-well plate (Corning; 3904). The following day, the media was changed from normal (10%) to low serum (0.5%) containing vehicle (DMSO) or compounds. 16-24 h later FBS was added to each well to bring serum levels back to normal (10%). Cells were then allowed to grow for 2 days. All treatments were done in triplicate. The day after cells were seeded, the media was changed to low serum media containing 2 μM CellEvent Caspase 3/7 reagent (Life Technologies; C10423) and compounds. The plates were placed in an IncuCyte (Essen Bioscience, Inc.) live cell imager and scanning was started 15-20 mins after. IncuCyte™ ZOOM facilitates live-cell monitoring via customized imaging protocols. Images were taken every 2 h for at least 3 days, using a 10× objective. Phase contrast was used to measure cell confluency/density while green fluorescence was used to measure caspase activity. The images were analyzed using IncuCyte software (Basic Analysis parameters) and a ratio of caspase activity to cell density was determined.
# [5] = test system: ubiquityl-MDM2 in SJSA-1 osteosarcoma cells; experiment: Cellular ubiquityl-MDM2 assay (MSD Ub/Total MDM2); type: cell-based; conditions: Homo sapiens; SJSA-1 cells, low serum conditions; read-out: increase in ubiquityl-MDM2 (EC50)
# Method: HCT116 colon cancer cells or SJSA-1 osteosarcoma cells were seeded at a density of 150,000 cell per well in 90 ml (RPMI 1640 media, 10% FBS, 1× GlutaMAX™, Gibco) in 96-well black clear bottom, TC-treated (Greiner, Cat#655090), and incubated for 2 hours at 37° C., 5% CO2 in a tissue culture incubator. Compounds were prepared in a serial dilution in DMSO at 200× the final desired concentration in a 96-well polypropylene V-bottom (Greiner, Cat#651261), then diluted 1:20 in RPMI tissue culture medium and 10 ml transferred to each well of the cell plate. Cell plates were incubated overnight for 20 hours, 37° C., 5% CO2. 20 ml of a […] stock (in RPMI) of the proteasome inhibitor, MG132 (Cayman Chemical, Cat#10012628), was added to each well. Cells were incubated for 1 hour at 37° C., 5% CO2. Quantitation of ubiquityl-MDM2 was carried out using Ub/Total MDM2 whole cell lysate kit (MSD, Cat#K15168D-2). […] MSD read buffer was prepared according to manufacturer's instructions and 150 ml added per well. Plates were read using a MSD Sector Reader. […] Percentage increase in ubiquityl-MDM2 was calculated relative to DMSO controls using Genedata Screener software.
# [6] = test system: p53 and p21 in p53 wild-type breast cancer and osteosarcoma cells; experiment: Western blot of p53 and p21 in breast cancer, osteosarcoma and normal cells (FIG. 12A); type: cell-based; conditions: 15 μM, <24 h, low serum; p53 wild-type breast cancer and osteosarcoma cells but not normal cells
# Method: as §1
# [7] = test system: p53 and p21 in HCT116 colon cancer cell lines; experiment: Western blot of p53 and p21 in isogenic HCT116 cell lines (FIG. 2A); type: cell-based, Human; conditions: isogenic HCT116: wild-type, USP7 null
# Method: as §1
smiles,measurement,setting,value
"CCc1c(-c2ccc3[nH]ncc3c2)cnc(N)c1-c1ccc(O)cc1 [Compound 88, 4-[2-amino-4-ethyl-5-(1H-indazol-5-yl)-3-pyridyl]phenol]",p21 levels (western blot),[1],increases p21 levels
same,"cell viability (CellTiter-Glo), wild-type p53 tumor cell lines","[2]; MCF-7 and U Os, relative to compound 89",decreased viability
same,"cell viability (CellTiter-Glo), matched normal and p53 null cell lines","[2]; normal osteoblast cell lines, p53 null MDA-MB157 and SaOs",do not show similar decreases in cell viability
same,"effect on p53, p21, MDM2 and E6AP (western blot)",[3],"stabilize p53, p21, and destabilize MDM2 and E6AP"
same,cell viability (Incucyte cell proliferation),[4],decreases cell viability
same,pEC50,[5],5.70
same,p53 and p21 levels (western blot),[6],increases p53 and p21 levels
same,stabilization of p53 and p21 (western blot),[7],stabilize p53 and p21
